US20250082624A1, “METHODS OF TREATING COGNITIVE IMPAIRMENT” (NeuroTherapia, Inc., priority 2023, published 2025)
Where “and” joins values, the source holds several entries; their conditions need not be identical. Equal entries are not always repeated. Entries after “also recorded” stand apart in the source; their conditions may differ. Where two headings read alike, the source gives them in different places.

Assay: Phase 1b MAD plasma pharmacokinetics, non-compartmental analysis
Format: in vivo, human
Source text: Methods: All study procedures were approved by the IRB, and informed consent was obtained. Three cohorts of volunteers 45-80 years of age with well-controlled comorbidities (NOAD) and one cohort of AD patients diagnosed with cognitive impairment consistent with prodromal AD per International Working Group criteria or mild AD per National Institute on Aging—Alzheimer's Association criteria (n=6 active, 2 placebo per cohort) were enrolled. Participants were admitted to the study site for the duration of the dosing and returned 7-12 days after the last dose for a safety visit. Participants received NTRX-07 (10, 30, or 90 mg) or a placebo in a double-blinded randomization orally once daily for seven days. Subjects were assessed for changes in vital signs, including maneuvers to induce lightheadedness, electrocardiograms, 24-hour electroencephalograms (EEG), and safety laboratory studies. The second cohort returned and received a single repeat dose after a standard high-fat meal. The AD cohort also underwent cognitive testing and had blood samples for biomarkers drawn. Subjects had PK sampling done after the first and final dose of the study drug. An independent safety review committee conducted a blinded safety review of adverse events and plasma levels between each cohort.
All subjects had PK sampling done after the first and final dose of the study drug.
(§1) Raw bioanalytical data were received from Nuvisan following analysis of plasma samples from each of four cohorts. PK parameters were calculated by noncompartmental analysis using standard equations. Specifically, area under the plasma concentration versus time curve (AUC) was calculated using the trapezoid rule. Maximal plasma concentration (Cmax) and time of maximal plasma concentration (Tmax) were taken directly from the data. Clearance divided by bioavailability (Cl/F) was calculated as the dose divided by the AUC. Apparent volume of distribution over bioavailability (Vd/F) was calculated as dose divided by Cmax.
With oral administration of the dose every 24 hours for 7 days, blood samples were taken over a 24-hour interval on Days 1 and 7 and before and after dosing on Day 3.
as §1, with “on Oct. 27, 2022. […]” for “following analysis of plasma samples from each of four cohorts. PK parameters were calculated by noncompartmental analysis using standard equations.”
as §1, with “on Nov. 24, 2022. […]” for “following analysis of plasma samples from each of four cohorts. PK parameters were calculated by noncompartmental analysis using standard equations.”
as §1, with “on Dec. 19, 2022. […]” for “following analysis of plasma samples from each of four cohorts. PK parameters were calculated by noncompartmental analysis using standard equations.”
Raw bioanalytical data were received from Nuvisan on Jun. 30, 2023. […] Specifically, area under the plasma concentration versus time curve (AUC) was calculated using the trapezoid rule. Maximal plasma concentration (Cmax) and time of maximal plasma concentration (Tmax) were taken directly from the data. […]

[1] = Table 17: Cohort D (AD), 90 mg QD oral, Day 7, individual subjects
[2] = Table 19 (interim): Cohort A, 40 mg SDD (10 mg NTRX-07) QD oral, Day 1, individual subjects
[3] = Table 20 (interim): Cohort A, 40 mg SDD (10 mg NTRX-07) QD oral, Day 7, individual subjects
[4] = Table 24 (interim): Cohort B, 120 mg SDD (30 mg NTRX-07) QD oral, Day 1, individual subjects
[5] = Table 25 (interim): Cohort B, 120 mg SDD (30 mg NTRX-07) QD oral, Day 7, individual subjects
[6] = Table 29 (interim): Cohort C, 360 mg SDD (90 mg NTRX-07) QD oral, Day 1, individual subjects
[7] = Table 30 (interim): Cohort C, 360 mg SDD (90 mg NTRX-07) QD oral, Day 7, individual subjects
[8] = Table 34 (interim): Cohort D (AD), 360 mg SDD (90 mg NTRX-07) QD oral, Day 1, individual subjects
[9] = Table 35 (interim): Cohort D (AD), 360 mg SDD (90 mg NTRX-07) QD oral, Day 7, individual subjects

CC1(Cc2ccccc2)COc2cc(C(=O)N3CCCCC3)ccc21 (centres unmarked) [NTRX-07, 3-benzyl-3-methyl-2,3-dihydrobenzofuran-6-carboxylic acid-piperidine amide]
Cmax [1]: 250 ng/mL and 262 ng/mL and 246 ng/mL and 176 ng/mL and 221 ng/mL | Tmax [1]: 1.5 h (3×) and 1 h | Cl/F (Table 17: Cohort D (AD), 90 mg QD oral, Day 7, mean ± S.D.): 117 ± 28 L/h | AUC24 h [2]: 35.7 ng·h/mL and 73.8 ng·h/mL and 151.0 ng·h/mL and 46.3 ng·h/mL and 154.2 ng·h/mL and 96.8 ng·h/mL | Cl/F [2]: 1120 L/h and 542 L/h and 265 L/h and 864 L/h and 259 L/h and 413 L/h | Cmax [2]: 24.2 ng/mL and 45.0 ng/mL and 36.7 ng/mL and 18.2 ng/mL and 52.6 ng/mL and 37.0 ng/mL | Tmax [2]: 1.0 h | Cl/F (Table 19 (interim): Cohort A, 40 mg SDD (10 mg NTRX-07) QD oral, Day 1, mean ± S.D.): 577 ± 347 L/h | AUC24 h [3]: 49.5 ng·h/mL and 92.8 ng·h/mL and 223.8 ng·h/mL and 41.5 ng·h/mL and 91.9 ng·h/mL and 67.0 ng·h/mL | Cl/F [3]: 808 L/h and 431 L/h and 179 L/h and 963 L/h and 435 L/h and 597 L/h | Cmax [3]: 29.6 ng/mL and 39.4 ng/mL and 63.6 ng/mL and 19.6 ng/mL and 46.7 ng/mL and 27.1 ng/mL | Tmax [3]: 1.0 h | Cl/F (Table 20 (interim): Cohort A, 40 mg SDD (10 mg NTRX-07) QD oral, Day 7, mean ± S.D.): 569 ± 284 L/h | AUC24 h [4]: 152.3 ng·h/mL and 462.4 ng·h/mL and 716.3 ng·h/mL and 369.3 ng·h/mL and 229.9 ng·h/mL and 97.4 ng·h/mL and 236.4 ng·h/mL | Cl/F [4]: 788 L/h and 260 L/h and 168 L/h and 325 L/h and 522 L/h and 1231 L/h and 508 L/h | Cmax [4]: 60.8 ng/mL and 93.9 ng/mL and 209 ng/mL and 127 ng/mL and 153 ng/mL and 47.9 ng/mL and 70.6 ng/mL | Tmax [4]: 1 h (3×) and 2 h | Cl/F (Table 24 (interim): Cohort B, 120 mg SDD (30 mg NTRX-07) QD oral, Day 1, mean ± S.D.): 549 ± 401 L/h | AUC24 h [5]: 118.0 ng·h/mL and 582.3 ng·h/mL and 286.5 ng·h/mL and 241.7 ng·h/mL and 67.1 ng·h/mL and 200.4 ng·h/mL | Cl/F [5]: 1017 L/h and 206 L/h and 419 L/h | Cmax [5]: 92.9 ng/mL and 236 ng/mL and 127 ng/mL | Tmax [5]: 1 h | AUC24 h [6]: 1629 ng·h/mL and 857 ng·h/mL and 925 ng·h/mL and 657 ng·h/mL and 1730 ng·h/mL and 1949 ng·h/mL | Tmax [6]: 1.5 h (2×) and 8 h and 1 h and 3 h | AUC24 h [7]: 783 ng·h/mL and 604 ng·h/mL and 354 ng·h/mL and 516 ng·h/mL and 876 ng·h/mL and 1349 ng·h/mL | Tmax [7]: 2 h and 1.5 h and 3 h | AUC24 h [8]: 1004 ng·h/mL and 1255 ng·h/mL and 2727 ng·h/mL and 1349 ng·h/mL and 1580 ng·h/mL and 1422 ng·h/mL | Tmax [8]: 2 h and 1 h (2×) and 1.5 h | AUC24 h [9]: 1854 ng·h/mL and 1659 ng·h/mL and 1603 ng·h/mL and 1328 ng·h/mL and 1130 ng·h/mL | Tmax [9]: 1.5 h (3×) and 1 h | PK / plasma levels AD vs Non-AD participants (high dose (90 mg)): similar; also recorded: comparable | Cmax (human, plasma, oral, 90 mg, high dose (90 mg), AD participants, read-out: Cmax): 477 ng/mL | AUC(0-t) (human, plasma, oral, 90 mg, high dose (90 mg), AD participants, read-out: average of AUC0-24 h): 1560 ng·h/mL | Cmax (human, plasma, oral, 90 mg, high dose (90 mg), Non-AD participants, read-out: Cmax): 439 ng/mL | AUC(0-t) (human, plasma, oral, 90 mg, high dose (90 mg), Non-AD participants, read-out: average of AUC0-24 h): 1290 ng·h/mL | AUC(0-t) (human, plasma, po, 10 mg, Cohort A healthy, 10 mg QD oral, Day 1, mean ± SD, read-out: Average of AUC24 h): 78.8 ± 43.7 ng·h/mL | Cmax (human, plasma, po, 10 mg, Cohort A healthy, 10 mg QD oral, Day 1, mean ± SD, read-out: Average of Cmax): 35.6 ± 12.8 ng/mL | Tmax (human, plasma, po, 10 mg, Cohort A healthy, 10 mg QD oral, Day 1, mean ± SD, read-out: Average of Tmax): 0.7 ± 0.3 h | Vd/F (human, plasma, po, 10 mg, Cohort A healthy, 10 mg QD oral, Day 1, mean ± SD, read-out: Average of Vd/F): 1280 ± 544 L | AUC(0-t) (human, plasma, po, 10 mg, Cohort A healthy, 10 mg QD oral, Day 7, mean ± SD, read-out: Average of AUC24 h): 90.4 ± 67.9 ng·h/mL | Cmax (human, plasma, po, 10 mg, Cohort A healthy, 10 mg QD oral, Day 7, mean ± SD, read-out: Average of Cmax): 37.7 ± 15.9 ng/mL | Tmax (human, plasma, po, 10 mg, Cohort A healthy, 10 mg QD oral, Day 7, mean ± SD, read-out: Average of Tmax): 0.8 ± 0.3 h | Vd/F (human, plasma, po, 10 mg, Cohort A healthy, 10 mg QD oral, Day 7, mean ± SD, read-out: Average of Vd/F): 307 ± 126 L | Tmax (human, plasma, po, 10 mg, Table 9: Cohort A, 10 mg QD oral, Day 1, individual subjects, read-out: Tmax): 0.5 h | AUC(0-t) (human, plasma, po, 10 mg, Table 9: Cohort A, 10 mg QD oral, Day 1, mean ± S.D., read-out: AUClast): 78.8 ± 43.7 ng·h/mL | Cmax (human, plasma, po, 10 mg, Table 9: Cohort A, 10 mg QD oral, Day 1, mean ± S.D., read-out: Cmax): 35.6 ± 12.8 ng/mL | Tmax (human, plasma, po, 10 mg, Table 9: Cohort A, 10 mg QD oral, Day 1, mean ± S.D., read-out: Tmax): 0.7 ± 0.3 h | Vd/F (human, plasma, po, 10 mg, Table 9: Cohort A, 10 mg QD oral, Day 1, mean ± S.D., read-out: Vd/F): 1280 ± 544 L | Tmax (human, plasma, po, 10 mg, Table 10: Cohort A, 10 mg QD oral, Day 7, individual subjects, read-out: Tmax): 0.5 h | AUC over 24 h (AUC0-24) (human, plasma, po, 10 mg, Table 10: Cohort A, 10 mg QD oral, Day 7, mean ± S.D.): 90.4 ± 67.9 ng·h/mL
